For assay [1], the system named is X. fastidiosa strain Temecula. It is filed as cell-based, Xylella fastidiosa.
The next assay concerns P. agglomerans. It is filed as cell-based, Pantoea agglomerans.

With `CC[C@H](C)[C@H](NC(=O)CN)C(=O)NCC(=O)N[C@@H](C)C(=O)N[C@H](C(=O)N[C@@H](CC(C)C)C(=O)N[C@@H](CCCCN)C(=O)N[C@H](C(=O)N[C@@H](CC(C)C)C(=O)N[C@H](C(=O)N[C@H](C(=O)NCC(=O)N[C@@H](CC(C)C)C(=O)N1CCC[C@H]1C(=O)N[C@@H](C)C(=O)N[C@@H](CC(C)C)C(=O)N[C@H](C(=O)N[C@@H](CO)C(=O)N[C@@H](Cc1c[nH]c2ccccc12)C(=O)N[C@H](C(=O)N[C@@H](CCCCN)C(=O)N[C@@H](CCCNC(=N)N)C(=O)N[C@@H](CCCCN)C(=O)N[C@@H](CCCNC(=N)N)C(=O)N[C@@H](CCC(N)=O)C(=O)N[C@@H](CCC(N)=O)C(N)=O)[C@@H](C)CC)[C@@H](C)CC)[C@@H](C)O)[C@@H](C)O)C(C)C)C(C)C` [melittin, Melittin], in assay [1], the “concentration that killed X. fastidiosa” value was determined as 5 µM and the “toxicity to X. fastidiosa compared with P. agglomerans” value is given as “more toxic to X. fastidiosa than P. agglomerans”. Besides, in the assay on P. agglomerans, the “concentration killing P. agglomerans relative to concentration killing X. fastidiosa” value is reported as “five times higher” and the “concentration that killed P. agglomerans” value is 25 µM.

For scorpine-like molecule [SLM], in assay [1], the “concentration that killed X. fastidiosa” value was found to be 25 µM and the “toxicity to X. fastidiosa compared with P. agglomerans” value is reported as “more toxic to X. fastidiosa than P. agglomerans”. Moreover, the “concentration that killed P. agglomerans” value with P. agglomerans was above 75 µM.

The record behind these values is US20180327461A1, “COMPOSITIONS AND METHODS FOR CONTROL OF VECTOR-BORNE DISEASE” (STC.UNM, priority 2015, published 2018).
